Reference: ChEMBL document CHEMBL1201862, “PubChem BioAssay data set” (2004)
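Grown in 96-well plates, cells were treated for 48 hours with each compound at five concentrations. Insufficient inhibition: endpoint recorded as highest concentration tested. GI50 = concentration required for 50% inhibition of growth.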 Activity calls are given as the source filed them. Cut-off read from the data, not from the text of the source: active = GI50 up to about 1.1 µM and inactive = higher.

Tests used:
Test in all cases: NCI anticancer screen, dose series, 48 h
LOX IMVI = tested on: LOX IMVI
SK-MEL-5 = tested on: SK-MEL-5
RXF 393 = tested on: RXF 393
M14 = tested on: M14
OVCAR-8 = tested on: OVCAR-8
U-251 = tested on: U-251
HCC 2998 = tested on: HCC 2998
HCT-116 = tested on: HCT-116
K562 = tested on: K562
NCI-H23 = tested on: NCI-H23
RPMI-8226 = tested on: RPMI-8226
NCI-H460 = tested on: NCI-H460
HOP-62 = tested on: HOP-62
UACC-62 = tested on: UACC-62
COLO 205 = tested on: COLO 205
NCI-H522 = tested on: NCI-H522
MCF7 = tested on: MCF7
Hs-578T = tested on: Hs-578T
DU-145 = tested on: DU-145
BT-549 = tested on: BT-549

Measured: GI50

C=C(C)C1CC2C(C)=C(OC(C)=O)C1n1c(=O)c3cc4ccccc4cc3c(=O)n12 (stereo unspecified)
inactive: LOX IMVI > 84.3 µM | SK-MEL-5 87.3 µM | RXF 393 24.2 µM | M14 > 100 µM | OVCAR-8 > 68.7 µM | U-251 63.1 µM | HCC 2998 70.8 µM | HCT-116 > 76.7 µM | K562 46.2 µM | NCI-H23 50.1 µM | RPMI-8226 36 µM | NCI-H460 62.5 µM | HOP-62 > 100 µM | UACC-62 31.8 µM | COLO 205 > 100 µM | NCI-H522 51.5 µM

CC1(C)C2C=CC1(C)C1(CC2)OCCO1 (stereo unspecified)
inactive: LOX IMVI > 100 µM | MCF7 > 100 µM | RXF 393 > 100 µM | Hs-578T > 100 µM | M14 > 100 µM | OVCAR-8 > 100 µM | U-251 > 100 µM | HCC 2998 > 100 µM | HCT-116 > 100 µM | K562 > 100 µM | NCI-H23 > 100 µM | RPMI-8226 > 100 µM | NCI-H460 > 100 µM | DU-145 > 100 µM | HOP-62 > 100 µM | UACC-62 > 100 µM | COLO 205 > 100 µM

O=C(O)c1nc2ccc(C(F)(F)F)cc2nc1NCc1ccc(Cl)c(Cl)c1
inactive: BT-549 17.5 µM | LOX IMVI 15.1 µM | SK-MEL-5 21.4 µM | MCF7 17.8 µM | M14 17.8 µM | OVCAR-8 16.3 µM | U-251 13.8 µM | HCC 2998 16.4 µM | HCT-116 16.2 µM | K562 16.9 µM | NCI-H23 17.7 µM | RPMI-8226 27.7 µM | NCI-H460 16 µM | DU-145 17 µM | HOP-62 14.8 µM | UACC-62 17.1 µM | COLO 205 20.1 µM

COc1ccccc1Cn1[nH]c(=O)c2cc([N+](=O)[O-])ccc21
inactive: LOX IMVI > 100 µM | SK-MEL-5 > 100 µM | RXF 393 25.8 µM | Hs-578T 23.7 µM | M14 > 100 µM | OVCAR-8 > 100 µM | HCC 2998 65.9 µM | HCT-116 > 100 µM | K562 51.6 µM | NCI-H23 > 100 µM | RPMI-8226 > 100 µM | NCI-H460 > 100 µM | DU-145 > 100 µM | HOP-62 > 100 µM | UACC-62 76 µM | COLO 205 > 100 µM | NCI-H522 > 100 µM

Cc1n[nH]c(=O)n1/N=C/c1ccc(Cl)cc1
inactive: BT-549 23.1 µM | RXF 393 22.3 µM | M14 > 100 µM | OVCAR-8 83.6 µM | HCC 2998 > 100 µM | HCT-116 64.4 µM | K562 > 100 µM | NCI-H23 27.9 µM | RPMI-8226 > 100 µM | NCI-H460 59.7 µM | DU-145 47.2 µM | HOP-62 32.5 µM | UACC-62 56.9 µM | COLO 205 43.3 µM | NCI-H522 21.7 µM

NNC(=O)C1(NC(=O)c2ccccc2)C(c2ccccc2)C(c2ccccc2)=NN1c1ccccc1 (stereo unspecified)
inactive: BT-549 71.8 µM | LOX IMVI 23.8 µM | SK-MEL-5 30 µM | MCF7 37.9 µM | RXF 393 14.5 µM | M14 22.8 µM | OVCAR-8 55.5 µM | U-251 62.1 µM | HCC 2998 57.1 µM | HCT-116 37 µM | K562 27.2 µM | NCI-H23 54 µM | RPMI-8226 21.1 µM | NCI-H460 43.8 µM | DU-145 72.6 µM | HOP-62 34 µM | UACC-62 23.1 µM | COLO 205 45.5 µM | NCI-H522 55.3 µM
